Measured values published in patent US20220002314A1 (priority 2018, published 2022).

What was measured:
[1] = target: Human α2δ-1 subunit of Cav2.2 calcium channel (Homo sapiens, UniProt P54289); test: biochemical; assay type: binding
Human μ-opioid receptor = Human μ-opioid receptor (Homo sapiens, UniProt P35372); test: biochemical; assay type: binding
Chain of Human μ-opioid receptor (P35372 whole entry): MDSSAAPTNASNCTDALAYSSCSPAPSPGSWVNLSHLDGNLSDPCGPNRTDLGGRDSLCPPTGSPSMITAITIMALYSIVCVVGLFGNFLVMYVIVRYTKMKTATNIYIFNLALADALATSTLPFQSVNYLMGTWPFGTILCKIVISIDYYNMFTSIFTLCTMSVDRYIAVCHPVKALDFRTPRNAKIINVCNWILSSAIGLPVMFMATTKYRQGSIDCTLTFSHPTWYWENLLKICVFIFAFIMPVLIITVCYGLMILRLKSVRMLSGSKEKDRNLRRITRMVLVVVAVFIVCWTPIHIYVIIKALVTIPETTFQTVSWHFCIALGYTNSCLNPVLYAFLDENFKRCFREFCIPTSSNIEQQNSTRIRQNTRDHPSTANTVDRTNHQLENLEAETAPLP

Chain of Human α2δ-1 subunit of Cav2.2 calcium channel (P54289 25-1103): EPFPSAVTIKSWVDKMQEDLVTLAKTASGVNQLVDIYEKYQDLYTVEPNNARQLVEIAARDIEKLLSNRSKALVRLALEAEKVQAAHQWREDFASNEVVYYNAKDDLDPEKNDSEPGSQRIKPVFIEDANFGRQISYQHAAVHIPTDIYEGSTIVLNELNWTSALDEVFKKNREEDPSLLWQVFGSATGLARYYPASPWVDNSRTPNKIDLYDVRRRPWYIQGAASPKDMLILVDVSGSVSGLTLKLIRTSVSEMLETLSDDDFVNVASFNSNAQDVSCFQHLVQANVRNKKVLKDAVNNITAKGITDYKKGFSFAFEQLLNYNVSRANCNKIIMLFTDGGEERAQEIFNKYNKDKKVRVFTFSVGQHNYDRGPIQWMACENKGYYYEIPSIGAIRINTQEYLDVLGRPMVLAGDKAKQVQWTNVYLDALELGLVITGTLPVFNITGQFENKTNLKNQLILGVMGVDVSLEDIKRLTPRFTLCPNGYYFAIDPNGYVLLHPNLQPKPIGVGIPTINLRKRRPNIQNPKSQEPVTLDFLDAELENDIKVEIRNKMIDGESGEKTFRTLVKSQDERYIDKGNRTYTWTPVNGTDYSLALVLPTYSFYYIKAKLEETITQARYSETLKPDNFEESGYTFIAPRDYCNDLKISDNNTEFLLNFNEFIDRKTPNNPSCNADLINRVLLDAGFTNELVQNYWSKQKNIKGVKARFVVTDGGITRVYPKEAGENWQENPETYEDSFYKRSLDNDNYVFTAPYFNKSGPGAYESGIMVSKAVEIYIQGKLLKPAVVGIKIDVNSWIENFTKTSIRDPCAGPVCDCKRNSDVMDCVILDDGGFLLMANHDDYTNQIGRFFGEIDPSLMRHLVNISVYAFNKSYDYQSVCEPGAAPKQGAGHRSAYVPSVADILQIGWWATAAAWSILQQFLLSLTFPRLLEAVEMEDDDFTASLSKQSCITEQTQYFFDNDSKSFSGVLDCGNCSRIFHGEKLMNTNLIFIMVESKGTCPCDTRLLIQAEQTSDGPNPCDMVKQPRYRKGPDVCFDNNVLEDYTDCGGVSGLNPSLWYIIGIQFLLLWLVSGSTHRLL

SMILES	Ki [1]	Ki (Human μ-opioid receptor)
CCC[C@H](c1nc2cccnc2c(=O)n1CC)N1CCN[C@@H](C)C1 [Example 70, 3-Ethyl-2-((R)-1-((S)-3-methylpiperazin-1-yl)butyl)pyrido[3,2-d]pyrimidin-4(3H)-one]	< 0.5 µM	> 0.5 µM
CCC[C@H](c1nc2ccc(NCC[C@@]3(c4ccccn4)CCOC4(CCCC4)C3)cc2c(=O)n1CC)N1C[C@@H](C)N[C@@H](C)C1 [Example 160, 2-((R)-1-((3S,5R)-3,5-dimethylpiperazin-1-yl)butyl)-3-ethyl-6-((2-((R)-9-(pyridin-2-yl)-6-oxaspiro[4.5]decan-9-yl)ethyl)amino)quinazolin-4(3H)-one]	< 0.5 µM	> 0.5 µM
CCC[C@H](c1nc2ccc(C(F)(F)F)cc2c(=O)n1CC)N1CCN[C@@H](C)C1 [Example 207, 3-ethyl-2-((R)-1-((S)-3-methylpiperazin-1-yl)butyl)-6-(trifluoromethyl)quinazolin-4(3H)-one]	< 0.5 µM	0.1 to 0.5 µM
CCC[C@H](c1nc2cc(O[C@@H](CNC)c3ccccc3)ccc2c(=O)n1C)N1C[C@@H](C)N[C@@H](C)C1 [Example 169, 2-((R)-1-((3S,5R)-3,5-dimethylpiperazin-1-yl)butyl)-3-methyl-7-((R)-2-(methylamino)-1-phenylethoxy)quinazolin-4(3H)-one]	0.5 to 5 µM	> 0.5 µM
CCC[C@H](c1nc2c(F)cc(Cl)cc2c(=O)n1CC)N1CCNCC1 [Example 199, (R)-6-chloro-3-ethyl-8-fluoro-2-(1-(piperazin-1-yl)butyl)quinazolin-4(3H)-one]	< 0.5 µM	0.1 to 0.5 µM
CCC[C@@H](c1nc2nc(C(F)(F)F)ccc2c(=O)n1CC)N1CCN[C@@H](C)C1 [Example 77, 3-Ethyl-2-((S)-1-((S)-3-methylpiperazin-1-yl)butyl)-7-(trifluoromethyl)pyrido[2,3-d]pyrimidin-4(3H)-one]	> 5 µM	> 0.5 µM
CCC[C@H](c1nc2ccc(Br)cc2c(=O)n1CC)N1CCN[C@H](CF)C1 [Example 55, 6-Bromo-3-ethyl-2-((R)-1-((S)-3-(fluoromethyl)piperazin-1-yl)butyl)quinazolin-4(3H)-one]	< 0.5 µM	> 0.5 µM
CCC[C@@H](c1nc2ncc(Br)cc2c(=O)n1CC)N1CCN[C@@H](C)C1 [Example 69, 6-bromo-3-ethyl-2-((S)-1-((S)-3-methylpiperazin-1-yl)butyl)pyrido[2,3-d]pyrimidin-4(3H)-one]	> 5 µM	> 0.5 µM
CCC[C@H](c1nc2c(F)cccc2c(=O)n1CC)N1CCN[C@@H](C)C1 [Example 203, 3-ethyl-8-fluoro-2-((R)-1-((S)-3-methylpiperazin-1-yl)butyl)quinazolin-4(3H)-one]	< 0.5 µM	> 0.5 µM
CCC[C@H](c1nc2ccc(Cl)cc2c(=O)n1C)N1CCN[C@@H](C)C1 [Example 198, 6-chloro-3-methyl-2-((R)-1-((S)-3-methylpiperazin-1-yl)butyl)quinazolin-4(3H)-one]	< 0.5 µM	0.1 to 0.5 µM
CCC[C@H](c1nc2ccccc2c(=O)n1CCOC)N1C[C@@H](C)N[C@@H](C)C1 [Example 123, 2-((R)-1-((3S,5R)-3,5-Dimethylpiperazin-1-yl)butyl)-3-(2-methoxyethyl)quinazolin-4(3H)-one]	< 0.5 µM	> 0.5 µM
CCC[C@@H](c1nc2ccc(Br)cc2c(=O)n1CC)N1CCN[C@H](CF)C1 [Example 57, 6-bromo-3-ethyl-2-((S)-1-((S)-3-(fluoromethyl)piperazin-1-yl)butyl)quinazolin-4(3H)-one]	< 0.5 µM	> 0.5 µM
CCC[C@@H](c1nc2ccc(Br)cc2c(=O)n1CC)N1CCN(C)[C@@H](C)C1 [Example 111, 6-Bromo-2-((S)-1-((S)-3,4-dimethylpiperazin-1-yl)butyl)-3-ethylquinazolin-4(3H)-one]	> 5 µM	> 0.5 µM
CCC[C@@H](c1nc2ccc(NCC[C@@]3(c4ccccn4)CCOC4(CCCC4)C3)cc2c(=O)n1CC)N1C[C@@H](C)N[C@@H](C)C1 [Example 158, 2-((S)-1-((3S,5R)-3,5-Dimethylpiperazin-1-yl)butyl)-3-ethyl-6-((2-((R)-9-(pyridin-2-yl)-6-oxaspiro[4.5]decan-9-yl)ethyl)amino)quinazolin-4(3H)-one]	< 0.5 µM	> 0.5 µM
CCC[C@H](c1nc2ccc(Br)cc2c(=O)n1CC)N1CCN[C@@H](CC)C1 [Example 212, 6-bromo-3-ethyl-2-((R)-1-((S)-3-ethylpiperazin-1-yl)butyl)quinazolin-4(3H)-one]	< 0.5 µM	> 0.5 µM
CCC[C@@H](c1nc2ccc(Cl)cc2c(=O)n1CC)N1CCN[C@H](C)C1 [Example 102, 6-chloro-3-ethyl-2-((S)-1-((R)-3-methylpiperazin-1-yl)butyl)quinazolin-4(3H)-one]	> 5 µM	> 0.5 µM
CCC[C@@H](c1nc2cc(F)c(Cl)cc2c(=O)n1CC)N1CCN[C@@H](C)C1 [Example 54, 6-chloro-3-ethyl-7-fluoro-2-((S)-1-((S)-3-methylpiperazin-1-yl)butyl)quinazolin-4(3H)-one]	> 5 µM	> 0.5 µM

SMILES	Ki [1]	Ki (Human μ-opioid receptor)
CCC[C@H](c1nc2ccc(NCC[C@]3(c4ccccn4)CCOC4(CCCC4)C3)cc2c(=O)n1CC)N1C[C@@H](C)N[C@@H](C)C1 [Example 159, 2-((R)-1-((3S,5R)-3,5-dimethylpiperazin-1-yl)butyl)-3-ethyl-6-((2-((S)-9-(pyridin-2-yl)-6-oxaspiro[4.5]decan-9-yl)ethyl)amino)quinazolin-4(3H)-one]	0.5 to 5 µM	> 0.5 µM
CCC[C@@H](c1nc2ccccc2c(=O)n1C)N1C[C@@H](C)N[C@@H](C)C1 [Example 31, 2-((S)-1-((3S,5R)-3,5-dimethylpiperazin-1-yl)butyl)-3-methylquinazolin-4(3H)-one]	0.5 to 5 µM	> 0.5 µM
CCCC(c1nc2ccc(Br)c(F)c2c(=O)n1CC)N1C[C@@H](C)N[C@@H](C)C1 (stereo partly drawn) [Example 22, 6-bromo-2-(1-((3S,5R)-3,5-dimethylpiperazin-1-yl)butyl)-3-ethyl-5-fluoroquinazolin-4(3H)-one]	< 0.5 µM	> 0.5 µM
CCC[C@@H](c1nc2c(F)cc(Br)cc2c(=O)n1CC)N1CCNCC1 [Example 95, (S)-6-bromo-3-ethyl-8-fluoro-2-(1-(piperazin-1-yl)butyl)quinazolin-4(3H)-one]	> 5 µM	> 0.5 µM
CCC[C@@H](c1nc2ccc(Cl)cc2c(=O)n1CC)N1CCN[C@H](CF)C1 [Example 232, 6-chloro-3-ethyl-2-((S)-1-((S)-3-(fluoromethyl)piperazin-1-yl)butyl)quinazolin-4(3H)-one]	> 5 µM	> 0.5 µM
CCCC(c1nc2cc(F)c(F)cc2c(=O)n1CC)N1CCNCC1 (centres unmarked) [Example 86, 3-ethyl-6,7-difluoro-2-(1-(piperazin-1-yl)butyl)quinazolin-4(3H)-one]	< 0.5 µM	> 0.5 µM
CCC[C@@H](c1nc2c(F)cc(Br)cc2c(=O)n1CC)N1CCN[C@H](C)C1 [Example 48, 6-bromo-3-ethyl-8-fluoro-2-((S)-1-((R)-3-methylpiperazin-1-yl)butyl)quinazolin-4(3H)-one]	> 5 µM	> 0.5 µM
CCC[C@@H](c1nc2cnc(C(F)(F)F)cc2c(=O)n1CC)N1CCN[C@@H](C)C1 [Example 235, 3-ethyl-2-((S)-1-((S)-3-methylpiperazin-1-yl)butyl)-6-(trifluoromethyl)pyrido[3,4-d]pyrimidin-4(3H)-one]	> 5 µM	> 0.5 µM
CCCC(c1nc2ncc(Br)cc2c(=O)n1CC)N1CCNCC1 (centres unmarked) [Example 93, 6-bromo-3-ethyl-2-(1-(piperazin-1-yl)butyl)pyrido[2,3-d]pyrimidin-4(3H)-one]	< 0.5 µM	> 0.5 µM
CCCC(c1nc2cc(-c3ccncc3)ccc2c(=O)n1CC)N1C[C@@H](C)N[C@@H](C)C1 (stereo partly drawn) [Example 133, 2-(1-((3S,5R)-3,5-dimethylpiperazin-1-yl)butyl)-3-ethyl-7-(pyridin-4-yl)quinazolin-4(3H)-one]	< 0.5 µM	> 0.5 µM
CCC[C@H](c1nc2cc(O[C@@H](CCNC)c3ccccc3)ccc2c(=O)n1C)N1C[C@@H](C)N[C@@H](C)C1 [Example 167, 2-((R)-1-((3S,5R)-3,5-dimethylpiperazin-1-yl)butyl)-3-methyl-7-((S)-3-(methylamino)-1-phenylpropoxy)quinazolin-4(3H)-one]	< 0.5 µM	> 0.5 µM
CCC[C@@H](c1nc2ccc(Br)cc2c(=O)n1CC)[C@H]1CCN[C@@H](C)C1 [Example 190, 6-Bromo-3-ethyl-2-((R)-1-((2S,4S)-2-methylpiperidin-4-yl)butyl)quinazolin-4(3H)-one]	> 5 µM	> 0.5 µM
CCC[C@H](c1nc2ccc(OC)cc2c(=O)n1CC)N1CCN[C@@H](C)C1 [Example 215, 3-ethyl-6-methoxy-2-((R)-1-((S)-3-methylpiperazin-1-yl)butyl)quinazolin-4(3H)-one]	< 0.5 µM	> 0.5 µM
CCC[C@H](c1nc2cnc(C(F)(F)F)cc2c(=O)n1CC)N1CCN[C@H](C)C1 [Example 233, 3-Ethyl-2-((R)-1-((R)-3-methylpiperazin-1-yl)butyl)-6-(trifluoromethyl)pyrido[3,4-d]pyrimidin-4(3H)-one]	< 0.5 µM	> 0.5 µM
CCCC(c1nc2ccc(Br)c(Cl)c2c(=O)n1CC)N1C[C@@H](C)N[C@@H](C)C1 (stereo partly drawn) [Example 23, 6-bromo-5-chloro-2-(1-((3S,5R)-3,5-dimethylpiperazin-1-yl)butyl)-3-ethylquinazolin-4(3H)-one]	< 0.5 µM	> 0.5 µM
CCC[C@@H](c1nc2ccc(Cl)cc2c(=O)n1CC)N1CCN[C@@H](C)C1 [Example 104, 6-chloro-3-ethyl-2-((S)-1-((S)-3-methylpiperazin-1-yl)butyl)quinazolin-4(3H)-one]	> 5 µM	> 0.5 µM
CCCC(c1nc2ccc(Br)c(Cl)c2c(=O)n1CC)N1CCNCC1 (centres unmarked) [Example 91, 6-bromo-5-chloro-3-ethyl-2-(1-(piperazin-1-yl)butyl)quinazolin-4(3H)-one]	< 0.5 µM	0.1 to 0.5 µM
